Counter-ions that a name gives are not always drawn.

From patent US9994515B2, “Aryl naphthyl methanone oxime(s) and process for preparation thereof” (Council of Scientific & Industrial Research, priority 2013, dated 2018) come the findings set out here.

Common to all, as to settings: Table 1, MTT assay after 48 h treatment
Assay [1] relates to HL60. Put plainly: MTT cytotoxicity assay in HL-60 cells. In kind it is cell-based.
For assay [2], the system named is K562. Briefly: MTT cytotoxicity assay in K562 cells. It counts as cell-based.
Assay [3] deals with NIH3T3. Briefly: MTT cytotoxicity assay in NIH3T3 fibroblasts. It counts as cell-based, mouse. On the procedure:
To consider a molecule as a candidate compound in cancer drug therapy, the test compound must have specific cytotoxicity towards the cancer cells without affecting normal cell growth. Therefore, all active compounds were assessed for toxicity in non-cancer cell-lines: mouse fibroblast cell line (NIH3T3) and monkey kidney epithelial cells (Vero). […] Therefore, based on safety index ([…]), 5d [Centans; based on IUPAC name prefixed with Central Drug Research Institute's signature (Cent)] was selected as a lead compound.

Consider `CCN(CC)CCO/N=C(/c1ccc(SC)cc1)c1cccc2ccccc12` [Compound 5i, (4-(methylthio)phenyl)(naphthalen-1-yl)methanone O-2-(diethylamino)ethyl oxime citrate], for which the half-inhibitory concentration (IC50) in assay [1] (citrate) is > 50 µM; in assay [2] (citrate), > 30 µM; in assay [3] (citrate) it was 40 µM.
For the molecule `CSc1ccc(/C(=N/OCCCCNCCc2ccccc2)c2cccc3ccccc23)cc1` [Compound 8c, (4-(methylthio)phenyl)(naphthalen-1-yl)methanone O-4-(phenethylamino)butyl oxime], the 50% inhibitory concentration (IC50) in assay [1] (Homo sapiens, HL-60, 48 h) is > 50 µM; in assay [2] (Homo sapiens, K562, 48 h), > 30 µM; in assay [3] (Mus musculus, NIH3T3, 48 h), > 50 µM.
For `CCCCN(C)CCCO/N=C(/c1ccc(SC)cc1)c1cccc2ccccc12` [Compound 7d, (4-(methylthio)phenyl)(naphthalen-1-yl)methanone O-3-(butyl(methyl)amino)propyl oxime], the IC50 in assay [1] (Homo sapiens, HL-60, 48 h) was 13 µM; in assay [2] (Homo sapiens, K562, 48 h), > 50 µM; in assay [3] (Mus musculus, NIH3T3, 48 h) it was > 50 µM.
With `COc1ccc(/C(=N/OCCN2CCOCC2)c2cccc3ccccc23)cc1` [Compound 6h, (4-methoxyphenyl)(naphthalen-1-yl)methanone O-2-morpholinoethyl oxime], the IC50 in assay [1] (Homo sapiens, HL-60, 48 h) is > 50 µM; in assay [2] (Homo sapiens, K562, 48 h) it was 19 µM; in assay [3] (Mus musculus, NIH3T3, 48 h), 26 µM.
For `CSc1ccc(/C(=N/OCCN(C(C)C)C(C)C)c2cccc3ccccc23)cc1` [Compound 5e, (4-(methylthio)phenyl)(naphthalen-1-yl)methanone O-2-(diisopropylamino)ethyl oxime], in that order: 14 µM, 7 µM and 16 µM.
For `COc1ccc(/C(=N/OC(C)CN(C)C)c2cccc3ccccc23)cc1` (stereo not drawn) [Compound 6f, (4-methoxyphenyl)(naphthalen-1-yl)methanone O-1-(dimethylamino)propan-2-yl oxime oxalate], in that order: > 50 µM, > 50 µM and > 50 µM.
For the molecule `CSc1ccc(/C(=N/OCCN2CCCCCC2)c2cccc3ccccc23)cc1` [Compound 5h, (4-(methylthio)phenyl)(naphthalen-1-yl)methanone O-2-(azepan-1-yl)ethyl oxime oxalate], the IC50 in assay [1] (Homo sapiens, HL-60, 48 h) is > 50 µM; in assay [2] (Homo sapiens, K562, 48 h) it was > 50 µM; in assay [3] (Mus musculus, NIH3T3, 48 h), > 50 µM.
On to `CSc1ccc(/C(=N/OC(C)CN(C)C)c2cccc3ccccc23)cc1` (stereo not drawn) [Compound 5g, (4-(methylthio)phenyl)(naphthalen-1-yl)methanone O-1-(dimethylamino)propan-2-yl oxime oxalate], for which the 50% inhibitory concentration (IC50) in assay [1] (Homo sapiens, HL-60, 48 h) is > 50 µM; in assay [2] (Homo sapiens, K562, 48 h), > 50 µM; in assay [3] (Mus musculus, NIH3T3, 48 h), > 50 µM.
As for `CCN(CC)C(=O)CO/N=C(/c1ccc(SC)cc1)c1cccc2ccccc12` [Compound 5q, N,N-diethyl-2-((4-(methylthio)phenyl) (naphthalen-1-yl)methyleneaminooxy)acetamide], the IC50 was > 50 µM in assay [1] (Homo sapiens, HL-60, 48 h); > 50 µM in assay [2] (Homo sapiens, K562, 48 h); > 50 µM in assay [3] (Mus musculus, NIH3T3, 48 h).
On to `CCOC(=O)CO/N=C(/c1ccc(SC)cc1)c1cccc2ccccc12` [Compound 5p, Ethyl 2-((4-(methylthio)phenyl) (naphthalen-1-yl)methyleneaminooxy) acetate], for which the IC50 is 15 µM in assay [1] (Homo sapiens, HL-60, 48 h); > 50 µM in assay [2] (Homo sapiens, K562, 48 h); > 50 µM in assay [3] (Mus musculus, NIH3T3, 48 h).
For `CCN(CCCCO/N=C(/c1ccc(SC)cc1)c1cccc2ccccc12)Cc1ccccc1` [Compound 8d, (4-(methylthio)phenyl)(naphthalen-1-yl) methanone O-4-(benzyl(ethyl)amino)butyl oxime], the 50% inhibitory concentration (IC50) in assay [1] (Homo sapiens, HL-60, 48 h) was > 50 µM; in assay [2] (Homo sapiens, K562, 48 h) it was 16.3 µM; in assay [3] (Mus musculus, NIH3T3, 48 h), > 50 µM.
As to `CCN(CC)CCO/N=C(/c1ccc(SC)cc1)c1cccc2ccccc12` [Compound 5l, (4-(methylthio)phenyl)(naphthalen-1-yl)methanone O-2-(diethylamino)ethyl oxime], the IC50 in assay [1], in assay [2] and in assay [3] was > 50 µM throughout.
